Laboratory results: ChEMBL document CHEMBL5291721, “A preclinical secondary pharmacology resource illuminates target-adverse drug reaction associations of marketed drugs” (Nat Commun, 2023)

Assays:
[1] = target: T1, 5-hydroxytryptamine receptor 1A (Homo sapiens, UniProt P08908); format: functional, cell-based
T1 sequence (P08908 whole entry): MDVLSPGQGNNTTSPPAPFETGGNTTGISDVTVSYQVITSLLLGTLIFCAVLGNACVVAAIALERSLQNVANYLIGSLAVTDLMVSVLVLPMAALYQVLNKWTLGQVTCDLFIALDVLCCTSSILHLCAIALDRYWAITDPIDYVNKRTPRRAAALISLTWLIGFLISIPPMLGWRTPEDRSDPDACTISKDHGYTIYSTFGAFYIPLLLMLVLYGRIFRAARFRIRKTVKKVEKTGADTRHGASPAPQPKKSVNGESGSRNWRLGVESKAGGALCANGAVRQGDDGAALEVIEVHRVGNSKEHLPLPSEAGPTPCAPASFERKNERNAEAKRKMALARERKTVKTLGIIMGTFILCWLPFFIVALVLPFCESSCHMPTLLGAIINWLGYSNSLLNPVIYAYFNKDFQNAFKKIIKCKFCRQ

[2] = target: 5-hydroxytryptamine receptor 2B (Homo sapiens, UniProt P41595); format: functional, cell-based
5-hydroxytryptamine receptor 2B, sequence (P41595 whole entry): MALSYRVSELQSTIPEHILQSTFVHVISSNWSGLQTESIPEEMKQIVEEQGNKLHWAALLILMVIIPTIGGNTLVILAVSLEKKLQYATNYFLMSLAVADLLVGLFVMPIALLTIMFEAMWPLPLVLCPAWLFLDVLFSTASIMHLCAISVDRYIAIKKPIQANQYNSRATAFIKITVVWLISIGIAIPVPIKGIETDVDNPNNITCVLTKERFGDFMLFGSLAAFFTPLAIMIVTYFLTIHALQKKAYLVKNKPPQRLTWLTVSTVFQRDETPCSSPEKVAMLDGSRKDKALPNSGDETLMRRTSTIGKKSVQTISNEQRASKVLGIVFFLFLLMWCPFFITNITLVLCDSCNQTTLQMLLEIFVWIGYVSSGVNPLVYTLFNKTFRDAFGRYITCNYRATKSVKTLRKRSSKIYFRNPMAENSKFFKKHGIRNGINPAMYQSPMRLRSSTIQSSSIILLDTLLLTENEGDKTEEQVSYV

[3] = target: Gamma-aminobutyric acid receptor subunit alpha-1 (Rattus norvegicus, UniProt P62813)
Gamma-aminobutyric acid receptor subunit alpha-1, sequence (P62813 whole entry): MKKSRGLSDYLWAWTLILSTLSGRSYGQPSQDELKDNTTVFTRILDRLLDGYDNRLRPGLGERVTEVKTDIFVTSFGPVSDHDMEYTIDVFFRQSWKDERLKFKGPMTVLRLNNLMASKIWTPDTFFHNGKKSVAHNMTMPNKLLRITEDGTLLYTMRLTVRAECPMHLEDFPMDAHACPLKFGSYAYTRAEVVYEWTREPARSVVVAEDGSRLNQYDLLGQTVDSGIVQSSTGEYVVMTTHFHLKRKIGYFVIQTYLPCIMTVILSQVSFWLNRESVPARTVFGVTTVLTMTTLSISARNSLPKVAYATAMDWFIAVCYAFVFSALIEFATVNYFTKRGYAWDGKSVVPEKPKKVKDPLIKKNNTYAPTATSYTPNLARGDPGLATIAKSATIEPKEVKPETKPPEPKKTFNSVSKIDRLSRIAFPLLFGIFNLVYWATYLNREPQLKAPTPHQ

[4] = target: T2, Muscarinic acetylcholine receptor M2 (Homo sapiens, UniProt P08172); format: functional, cell-based
T2 sequence (P08172 whole entry): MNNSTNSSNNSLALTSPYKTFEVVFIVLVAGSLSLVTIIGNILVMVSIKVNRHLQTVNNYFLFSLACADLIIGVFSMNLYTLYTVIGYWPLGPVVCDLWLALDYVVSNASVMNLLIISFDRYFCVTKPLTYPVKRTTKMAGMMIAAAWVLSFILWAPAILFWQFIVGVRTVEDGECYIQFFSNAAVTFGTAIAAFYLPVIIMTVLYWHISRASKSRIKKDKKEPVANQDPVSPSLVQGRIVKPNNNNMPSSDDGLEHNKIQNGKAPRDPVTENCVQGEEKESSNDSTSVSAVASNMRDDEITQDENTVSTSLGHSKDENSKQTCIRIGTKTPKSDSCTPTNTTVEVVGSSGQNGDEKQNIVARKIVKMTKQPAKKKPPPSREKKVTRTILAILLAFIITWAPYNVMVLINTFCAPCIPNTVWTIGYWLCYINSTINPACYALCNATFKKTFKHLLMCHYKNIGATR

[5] = target: T3, Type-1 angiotensin II receptor (Homo sapiens, UniProt P30556)
T3 sequence (P30556 whole entry): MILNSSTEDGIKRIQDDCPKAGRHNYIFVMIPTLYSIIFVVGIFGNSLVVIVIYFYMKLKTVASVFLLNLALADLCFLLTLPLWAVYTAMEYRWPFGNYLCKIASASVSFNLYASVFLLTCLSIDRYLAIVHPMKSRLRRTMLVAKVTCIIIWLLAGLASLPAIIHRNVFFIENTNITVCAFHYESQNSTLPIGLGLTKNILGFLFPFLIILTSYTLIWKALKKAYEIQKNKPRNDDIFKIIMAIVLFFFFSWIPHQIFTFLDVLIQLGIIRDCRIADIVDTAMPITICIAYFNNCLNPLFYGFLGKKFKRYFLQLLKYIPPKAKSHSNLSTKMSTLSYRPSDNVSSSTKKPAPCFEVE

[6] = target: Sodium-dependent serotonin transporter (Homo sapiens, UniProt P31645)
Sodium-dependent serotonin transporter, sequence (P31645 whole entry): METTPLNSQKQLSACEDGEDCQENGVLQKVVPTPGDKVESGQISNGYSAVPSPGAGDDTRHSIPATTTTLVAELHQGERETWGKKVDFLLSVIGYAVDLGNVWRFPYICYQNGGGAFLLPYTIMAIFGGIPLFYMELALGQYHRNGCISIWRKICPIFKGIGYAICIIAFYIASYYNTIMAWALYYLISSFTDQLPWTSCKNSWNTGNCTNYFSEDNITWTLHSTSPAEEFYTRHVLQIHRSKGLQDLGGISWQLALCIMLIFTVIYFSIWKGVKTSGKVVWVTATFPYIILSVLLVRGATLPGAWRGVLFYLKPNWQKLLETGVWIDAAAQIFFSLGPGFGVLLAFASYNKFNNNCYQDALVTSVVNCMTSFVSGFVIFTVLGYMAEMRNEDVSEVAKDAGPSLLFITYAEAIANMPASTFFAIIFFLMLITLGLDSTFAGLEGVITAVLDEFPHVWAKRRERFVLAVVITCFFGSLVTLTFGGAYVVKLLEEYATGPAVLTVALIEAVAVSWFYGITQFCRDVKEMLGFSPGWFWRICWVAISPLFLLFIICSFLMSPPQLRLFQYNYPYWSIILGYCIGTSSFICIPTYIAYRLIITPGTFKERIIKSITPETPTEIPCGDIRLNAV

[7] = target: 5-hydroxytryptamine receptor 2A (Homo sapiens, UniProt P28223); format: functional, cell-based
5-hydroxytryptamine receptor 2A, sequence (P28223 whole entry): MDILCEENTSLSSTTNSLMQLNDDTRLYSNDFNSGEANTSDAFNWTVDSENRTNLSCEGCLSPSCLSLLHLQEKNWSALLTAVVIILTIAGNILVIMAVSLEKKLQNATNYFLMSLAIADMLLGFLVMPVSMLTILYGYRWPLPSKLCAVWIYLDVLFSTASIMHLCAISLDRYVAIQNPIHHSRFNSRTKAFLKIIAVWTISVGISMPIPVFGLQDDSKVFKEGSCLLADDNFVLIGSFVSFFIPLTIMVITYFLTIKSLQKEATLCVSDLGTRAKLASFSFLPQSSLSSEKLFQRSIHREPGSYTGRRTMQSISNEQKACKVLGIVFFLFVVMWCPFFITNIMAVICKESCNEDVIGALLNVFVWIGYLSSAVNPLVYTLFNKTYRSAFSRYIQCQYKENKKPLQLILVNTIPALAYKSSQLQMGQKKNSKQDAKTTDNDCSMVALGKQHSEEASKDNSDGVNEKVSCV

[8] = target: D(1A) dopamine receptor (Homo sapiens, UniProt P21728); format: functional, cell-based
[9] = target: Voltage-dependent L-type calcium channel subunit alpha-1C (Rattus norvegicus, UniProt P22002); format: functional
Voltage-dependent L-type calcium channel subunit alpha-1C, sequence (P22002 whole entry): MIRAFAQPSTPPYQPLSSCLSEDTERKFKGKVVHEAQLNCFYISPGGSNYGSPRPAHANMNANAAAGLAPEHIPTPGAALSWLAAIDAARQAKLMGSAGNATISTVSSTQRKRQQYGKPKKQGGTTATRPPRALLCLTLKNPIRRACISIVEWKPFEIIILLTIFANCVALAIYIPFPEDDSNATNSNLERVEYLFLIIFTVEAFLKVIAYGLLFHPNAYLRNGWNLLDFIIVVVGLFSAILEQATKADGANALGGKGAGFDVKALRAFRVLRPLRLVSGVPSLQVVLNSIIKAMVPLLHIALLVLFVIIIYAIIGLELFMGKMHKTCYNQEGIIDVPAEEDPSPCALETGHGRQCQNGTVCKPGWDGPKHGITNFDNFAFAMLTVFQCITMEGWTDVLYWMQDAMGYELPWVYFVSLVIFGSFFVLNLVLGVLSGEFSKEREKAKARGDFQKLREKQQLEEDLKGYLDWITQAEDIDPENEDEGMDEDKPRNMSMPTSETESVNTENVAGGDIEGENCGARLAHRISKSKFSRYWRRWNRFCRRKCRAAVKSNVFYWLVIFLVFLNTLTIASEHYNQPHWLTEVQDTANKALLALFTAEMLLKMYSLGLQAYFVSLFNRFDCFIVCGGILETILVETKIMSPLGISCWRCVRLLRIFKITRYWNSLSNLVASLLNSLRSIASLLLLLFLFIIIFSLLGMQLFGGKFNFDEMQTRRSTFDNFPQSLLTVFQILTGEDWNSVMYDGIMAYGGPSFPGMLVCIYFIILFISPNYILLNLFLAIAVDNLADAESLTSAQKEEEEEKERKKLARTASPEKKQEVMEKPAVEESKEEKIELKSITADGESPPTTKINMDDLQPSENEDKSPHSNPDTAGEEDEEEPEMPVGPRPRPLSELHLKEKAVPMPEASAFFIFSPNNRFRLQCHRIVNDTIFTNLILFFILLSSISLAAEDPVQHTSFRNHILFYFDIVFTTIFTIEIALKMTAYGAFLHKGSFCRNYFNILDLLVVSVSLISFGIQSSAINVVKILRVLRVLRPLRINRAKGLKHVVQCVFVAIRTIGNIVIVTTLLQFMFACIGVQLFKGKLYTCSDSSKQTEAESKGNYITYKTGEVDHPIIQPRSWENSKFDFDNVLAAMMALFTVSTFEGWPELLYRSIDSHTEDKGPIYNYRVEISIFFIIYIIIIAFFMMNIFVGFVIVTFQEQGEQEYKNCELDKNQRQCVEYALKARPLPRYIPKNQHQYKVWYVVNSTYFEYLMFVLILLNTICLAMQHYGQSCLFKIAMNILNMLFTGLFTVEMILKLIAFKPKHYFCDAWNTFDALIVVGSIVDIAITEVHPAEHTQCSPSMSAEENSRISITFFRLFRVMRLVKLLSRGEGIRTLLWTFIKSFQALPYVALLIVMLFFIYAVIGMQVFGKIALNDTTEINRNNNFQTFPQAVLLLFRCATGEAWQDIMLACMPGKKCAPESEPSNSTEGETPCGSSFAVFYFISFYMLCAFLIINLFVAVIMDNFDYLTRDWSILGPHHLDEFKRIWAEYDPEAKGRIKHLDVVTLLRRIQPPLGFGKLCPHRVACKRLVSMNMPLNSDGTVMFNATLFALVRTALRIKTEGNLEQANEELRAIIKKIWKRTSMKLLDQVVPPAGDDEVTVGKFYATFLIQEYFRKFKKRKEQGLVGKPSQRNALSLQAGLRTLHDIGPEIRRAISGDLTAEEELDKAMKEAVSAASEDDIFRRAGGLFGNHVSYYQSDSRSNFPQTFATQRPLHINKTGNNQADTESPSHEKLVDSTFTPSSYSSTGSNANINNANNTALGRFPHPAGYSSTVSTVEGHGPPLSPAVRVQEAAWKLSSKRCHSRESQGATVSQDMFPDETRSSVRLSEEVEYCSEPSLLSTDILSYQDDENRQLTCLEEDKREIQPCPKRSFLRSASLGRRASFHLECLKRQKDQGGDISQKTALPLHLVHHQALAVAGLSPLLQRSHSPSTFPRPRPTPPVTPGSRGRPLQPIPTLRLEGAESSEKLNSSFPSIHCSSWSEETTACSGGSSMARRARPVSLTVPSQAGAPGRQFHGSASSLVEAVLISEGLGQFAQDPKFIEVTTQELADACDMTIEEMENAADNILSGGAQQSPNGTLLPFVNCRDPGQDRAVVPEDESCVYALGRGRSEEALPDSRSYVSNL

[10] = target: Voltage-gated inwardly rectifying potassium channel KCNH2 (Homo sapiens, UniProt Q12809); format: functional; details: read-out: AC50
[11] = target: Sodium-dependent noradrenaline transporter (Homo sapiens, UniProt P23975)
Sodium-dependent noradrenaline transporter, sequence (P23975 whole entry): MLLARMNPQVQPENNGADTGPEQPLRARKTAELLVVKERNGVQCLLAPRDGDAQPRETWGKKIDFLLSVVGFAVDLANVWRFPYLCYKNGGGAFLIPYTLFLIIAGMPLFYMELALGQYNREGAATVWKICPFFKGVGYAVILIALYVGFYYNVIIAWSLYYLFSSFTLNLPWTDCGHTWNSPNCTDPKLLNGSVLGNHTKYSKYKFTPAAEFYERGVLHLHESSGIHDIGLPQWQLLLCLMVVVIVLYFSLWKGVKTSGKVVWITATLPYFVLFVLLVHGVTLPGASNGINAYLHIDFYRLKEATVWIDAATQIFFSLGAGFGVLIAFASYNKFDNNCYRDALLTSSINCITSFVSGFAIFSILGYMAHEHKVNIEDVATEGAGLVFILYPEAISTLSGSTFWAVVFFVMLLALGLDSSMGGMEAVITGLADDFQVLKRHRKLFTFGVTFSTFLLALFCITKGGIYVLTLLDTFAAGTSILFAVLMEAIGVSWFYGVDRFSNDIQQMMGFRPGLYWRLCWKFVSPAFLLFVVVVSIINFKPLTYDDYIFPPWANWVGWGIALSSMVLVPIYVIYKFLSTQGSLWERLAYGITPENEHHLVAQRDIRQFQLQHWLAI

[12] = target: T4, Glucocorticoid receptor (Homo sapiens, UniProt P04150)
T4 sequence (P04150 whole entry): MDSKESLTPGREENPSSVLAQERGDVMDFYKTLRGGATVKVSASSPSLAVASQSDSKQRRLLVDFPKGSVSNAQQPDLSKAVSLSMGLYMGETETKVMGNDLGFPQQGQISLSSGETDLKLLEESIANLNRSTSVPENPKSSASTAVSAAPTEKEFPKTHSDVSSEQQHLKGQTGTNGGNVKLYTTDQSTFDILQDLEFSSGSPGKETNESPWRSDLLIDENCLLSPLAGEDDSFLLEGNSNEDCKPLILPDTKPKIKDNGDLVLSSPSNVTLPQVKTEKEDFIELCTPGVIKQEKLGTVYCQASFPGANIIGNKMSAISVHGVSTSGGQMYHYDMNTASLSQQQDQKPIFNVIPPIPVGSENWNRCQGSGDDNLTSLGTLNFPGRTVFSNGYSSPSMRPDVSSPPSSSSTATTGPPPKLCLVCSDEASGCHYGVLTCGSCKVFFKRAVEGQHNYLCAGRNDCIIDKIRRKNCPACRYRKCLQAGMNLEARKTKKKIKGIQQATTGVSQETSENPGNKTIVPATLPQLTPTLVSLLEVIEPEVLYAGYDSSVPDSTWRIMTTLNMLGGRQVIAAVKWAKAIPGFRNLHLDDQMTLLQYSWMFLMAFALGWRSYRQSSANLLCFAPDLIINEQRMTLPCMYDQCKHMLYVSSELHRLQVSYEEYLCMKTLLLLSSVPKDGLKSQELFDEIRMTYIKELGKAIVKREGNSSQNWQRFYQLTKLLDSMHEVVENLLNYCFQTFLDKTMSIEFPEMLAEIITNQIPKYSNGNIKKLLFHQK
Further: assay procedure not described here.

| Structure (SMILES) | AC50 [1] | AC50 [2] | AC50 [3] | AC50 [4] | AC50 [5] | AC50 [6] | AC50 [7] | AC50 [8] | AC50 [9] | AC50 [10] | AC50 [11] | AC50 [12] |
| --- | --- | --- | --- | --- | --- | --- | --- | --- | --- | --- | --- | --- |
| CC(C)(C)C(=O)Oc1ccc(S(=O)(=O)Nc2ccccc2C(=O)NCC(=O)O)cc1 | > 30 µM | > 30 µM | > 30 µM | > 30 µM | > 30 µM | > 10 µM | > 30 µM | > 30 µM | > 30 µM | > 30 µM | > 30 µM | – |
| COc1ccccc1N1CCN(CCCNc2cc(=O)n(C)c(=O)n2C)CC1 | – | 20 µM | > 30 µM | > 30 µM | > 30 µM | 9.5 µM | > 30 µM | > 30 µM | > 30 µM | > 30 µM | > 30 µM | – |
| CC(C)C(=O)c1c(C(C)C)nn2ccccc12 [IBUDILAST] | – | > 30 µM | > 30 µM | > 30 µM | > 30 µM | > 30 µM | > 30 µM | > 30 µM | > 30 µM | > 30 µM | > 30 µM | – |
| O=C(O)CCCCCCCC(=O)O [AZELAIC ACID] | > 10 µM | > 10 µM | > 10 µM | > 10 µM | > 10 µM | > 10 µM | > 10 µM | > 30 µM | > 10 µM | > 30 µM | > 10 µM | – |
| CC(CC(c1ccccc1)c1ccccc1)NC(C)(C)C (stereo not given) [TERODILINE] | – | > 30 µM | > 30 µM | > 30 µM | > 30 µM | > 30 µM | > 30 µM | > 30 µM | > 30 µM | – | > 30 µM | – |
| C#C[C@]1(O)CC[C@H]2[C@@H]3CCc4cc(OC5CCCC5)ccc4[C@H]3CC[C@@]21C [QUINESTROL] | > 10 µM | > 10 µM | > 10 µM | > 10 µM | > 10 µM | > 10 µM | > 10 µM | > 10 µM | > 10 µM | > 30 µM | > 10 µM | – |
| CO/N=C(\C(=O)N[C@@H]1C(=O)N2C(C(=O)O)=C(CSc3nnnn3C)CS[C@H]12)c1csc(N)n1 [CEFMENOXIME] | – | > 30 µM | – | > 30 µM | > 30 µM | > 30 µM | > 30 µM | > 30 µM | – | > 30 µM | > 30 µM | > 30 µM |
| CCCC(C)C1(CC)C(=O)NC(=O)NC1=O (stereo not given) [PENTOBARBITAL] | > 10 µM | > 10 µM | – | > 10 µM | > 10 µM | > 10 µM | > 10 µM | > 30 µM | > 10 µM | > 30 µM | > 10 µM | – |
| CC[C@@H]1C(=O)OC[C@@H]1Cc1cncn1C [PILOCARPINE] | – | > 10 µM | > 10 µM | – | > 30 µM | > 30 µM | > 30 µM | > 10 µM | > 10 µM | > 30 µM | > 30 µM | – |
| Cc1cccc(C(C)c2cnc[nH]2)c1C (stereo not given) [MEDETOMIDINE] | > 30 µM | > 30 µM | > 10 µM | > 10 µM | > 30 µM | – | > 30 µM | > 30 µM | > 30 µM | 17.8 µM | > 30 µM | > 30 µM |
| NCC(=O)CCC(=O)O [AMINOLEVULINIC ACID] | – | – | > 30 µM | > 30 µM | > 30 µM | > 30 µM | > 30 µM | > 30 µM | – | > 30 µM | – | > 30 µM |
| C/C(O)=C(\C#N)C(=O)Nc1ccc(C(F)(F)F)cc1 [TERIFLUNOMIDE] | > 30 µM | > 30 µM | – | > 30 µM | > 30 µM | > 30 µM | 28 µM | > 30 µM | – | > 30 µM | > 30 µM | – |
| CC(=O)O[C@H]1CC[C@@]2(C)C(=CC[C@@H]3[C@@H]2CC[C@]2(C)C(c4cccnc4)=CC[C@@H]32)C1 [ABIRATERONE ACETATE] | – | > 30 µM | – | > 30 µM | > 30 µM | > 30 µM | > 30 µM | > 30 µM | – | > 30 µM | > 30 µM | – |
| CCN1CCN(C(=O)N[C@@H](C(=O)N[C@@H]2C(=O)N3C(C(=O)O)=C(CSc4nnnn4C)CS[C@H]23)c2ccc(O)cc2)C(=O)C1=O [CEFOPERAZONE] | > 30 µM | > 30 µM | – | > 30 µM | > 30 µM | > 30 µM | > 30 µM | > 30 µM | – | > 30 µM | > 30 µM | – |
| CCOC(=O)[C@H](CCc1ccccc1)N[C@@H](C)C(=O)N1C(=O)N(C)C[C@H]1C(=O)O | > 30 µM | > 30 µM | > 30 µM | > 30 µM | > 30 µM | > 30 µM | > 30 µM | > 30 µM | > 30 µM | > 30 µM | > 30 µM | – |
| CC(C)(C)c1cc(C(C)(C)C)c(NC(=O)c2c[nH]c3ccccc3c2=O)cc1O [IVACAFTOR] | – | > 10 µM | > 10 µM | – | 26.9 µM | > 30 µM | – | – | > 10 µM | > 30 µM | 6.5 µM | > 30 µM |
| CN1C(=O)C(O)N=C(c2ccccc2)c2cc(Cl)ccc21 (stereo not given) [TEMAZEPAM] | > 10 µM | > 10 µM | > 10 µM | > 10 µM | > 30 µM | > 10 µM | > 30 µM | > 10 µM | > 10 µM | – | > 10 µM | – |
| COc1ccc(-c2ccc3cc(C(=O)O)ccc3c2)cc1C12CC3CC(CC(C3)C1)C2 | > 30 µM | > 30 µM | > 30 µM | > 30 µM | > 30 µM | > 30 µM | > 30 µM | > 30 µM | 1.5 µM | > 30 µM | > 30 µM | – |
